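96-well plates; 48 h exposure; 5 concentrations. Endpoints by linear interpolation between flanking doses. Not reached: highest tested concentration assigned. At the GI50, growth is halved. TGI marks complete inhibition of growth.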

Holding throughout (experiment): DTP human tumour cell line panel, 48 h
The subject of test [1] is SF-295 CNS.
The subject of test [2] is HL-60(TB) leukemia.
Test [3] has as its system K-562 leukemia.
The test system of test [4] is OVCAR-8 ovarian.
Test [5] relates to NCI-H460 lung.
The test system of test [6] is OVCAR-3 ovarian.
For test [7], the system named is LOX IMVI melanoma.
Test [8] deals with MCF7 breast.
Test [9] relates to NCI-H522 lung.
Test [10] has as its system A498 renal.

As for `CCOC(=O)/C=C/CC(C)(C)CCOC(C)=O`, the TGI in test [1], in test [2], in test [3], in test [4], in [5] and in test [6] was more than 10 µM each time. Also, the TGI in test [7], in [8] and in [9] was more than 10 µM in each case.
With `CC1CCc2nc[nH]c(=O)c21` (stereo unspecified), the GI50 in test [2], in [3], in [10], in [4], in [5] and in [6] was more than 100 µM in each case. The GI50 in test [7], in test [8] and in test [9] was more than 100 µM each time. The TGI in [2], in test [3], in test [10], in test [4], in test [5] and in test [6] was more than 100 µM in each case. The TGI in [7], in test [8] and in test [9] was more than 100 µM each time.
In the case of `COC1/C=C/OC2(C)Oc3c(C)c(O)c4c(O)c(c(/C=N/Nc5ccc([N+](=O)[O-])cc5[N+](=O)[O-])c(O)c4c3C2=O)NC(=O)C(C)=C/C=C/C(C)C(O)C(C)C(O)C(C)C(OC(C)=O)C1C` (stereo unspecified), the GI50 in test [1] was 5.64 µM; in test [10] it was 6.87 µM; in test [4], 1.41 µM; in [5], 5.22 µM; in [6], 1.1 µM; in [7], 1.03 µM. The GI50 in test [8] is 2 µM. The TGI is 20.1 µM in [1]; 14 µM in test [10]; 3.93 µM in test [4]; 14.7 µM in test [5]; 2.52 µM in [6]; 2.32 µM in test [7]. For the same compound, the TGI in [8] is more than 50 µM.
Turning to `CC(C)=CCC\C(C)=C/C=C/C(C)=C\C=C\C(C)=C/C=C/C=C(C)\C=C\C=C(C)/C=C/C=C(/C)CCC=C(C)C`, the TGI in test [1], in test [2], in [3], in test [10], in test [4] and in [6] was more than 100 µM throughout. The TGI in test [7] and in test [8] was more than 100 µM throughout.
Regarding `C=CCO[C@H]1CO[C@H]2[C@@H]1OC[C@@H]2Oc1ccc(Nc2ccnc(Nc3ccc(O[C@H]4CO[C@H]5[C@@H]4OC[C@@H]5OCC=C)c(Cl)c3)n2)cc1Cl`, the GI50 in test [1] is 1.85 µM; in test [2] it was 1.62 µM; in test [3], 0.378 µM; in test [4] it was 1.93 µM; in test [5], 1.76 µM; in test [6] it was 1.81 µM. Besides, the GI50 in test [7] is 1.76 µM; in test [8] it was 1.56 µM; in test [9], 1.96 µM. Moreover, the TGI in test [1] was 3.49 µM; in test [2], 3.78 µM; in test [3], 1.9 µM; in [4], 5.92 µM; in test [5], 3.35 µM; in [6] it was 3.25 µM. Also, the values for the TGI in [7], in test [8] and in [9] were 3.31 µM, 3.38 µM and 4.24 µM, respectively.
`Cc1ccc(Cl)c2c(N=Nc3ccccc3[N+](=O)[O-])c(O)[nH]c12`: the TGI in [1], in test [2], in test [3], in [10], in test [4] and in test [5] was more than 100 µM in each case. Further, the TGI in [6], in test [7] and in test [8] was more than 100 µM each time.
For the compound `Nc1nc(-n2c(-c3ccccc3)nc3c(Br)cc(Br)cc3c2=O)nnc1-c1cccc(Cl)c1Cl`, the GI50 was 11.2 µM in test [1]; 4.7 µM in test [3]; 15.4 µM in test [10]; 17.2 µM in [4]; 6.92 µM in test [5]; 6.84 µM in test [6]. The GI50 in test [7] is 4.06 µM; in test [8] it was 4.9 µM; in [9] it was 20.8 µM. The TGI in test [1] is 34.8 µM; in test [3], 7.66 µM; in [10], 56.5 µM; in [4], more than 100 µM; in test [5], more than 100 µM; in test [6], 53.6 µM. Also, the TGI in [7] was 37.2 µM; in test [8] it was more than 100 µM; in [9] it was more than 100 µM.
For the compound `c1ccc(-c2nc(-c3ccccc3SSc3ccccc3-c3nc(-c4ccccc4)nn3-c3ccccc3)n(-c3ccccc3)n2)cc1`, the TGI in test [1], in test [2], in test [3], in [10], in [4] and in test [5] was more than 100 µM each time. For the same compound, the TGI in [6], in [7] and in test [8] was more than 100 µM each time.
In the case of `Cc1ccsc1C(=S)Nc1ccc(Cl)c(/C=N/OC(C)(C)C)c1`, the TGI in test [1] is more than 100 µM; in [2], 74.7 µM; in test [10] it was 41.1 µM; in test [4], more than 100 µM; in test [5], more than 100 µM; in [6], more than 100 µM. The TGI was 48.8 µM in [7], more than 100 µM in [8] and more than 100 µM in [9].
`C[N+](C)(C)CC(=O)N/N=C(/CC(=O)CC(C1=C(O)c2ccccc2OC1)c1ccccc1)C(=O)Nc1cccc(Cl)c1` (stereo unspecified): the TGI in test [1], in test [2], in test [3], in [10], in test [4] and in [6] was more than 100 µM in each case. The TGI in test [7], in test [8] and in [9] was more than 100 µM in each case.

The values are drawn from PubChem BioAssay (NCI).
